Assay results as given in ChEMBL document CHEMBL1130478, “Mono and bis double ester prodrugs of novel aminomethyl-THF 1-methylcarbapenems” (Bioorg Med Chem Lett, 1997).
Values after ≈ are worked out from the molar mass of the structure shown. One block for each molecule: values may come before it.

What was measured:
Type in all cases: functional
[1] = test system: Acinetobacter calcoaceticus; test: In vitro antibacterial activity against Acinetobacter calcoaceticus (GC 756) following preincubation in mouse serum
Citrobacter freundii [2] = test: In vitro antibacterial activity against C. freundii(GC 2211) following pre-incubation in mouse serum
Citrobacter freundii [3] = test: In vitro antibacterial activity against C. freundii(GC 2211) without preincubation in mouse serum
[4] = target: T1, Dipeptidase 1 (Sus scrofa) (UniProt P22412); test: Relative hydrolysis by hog Dehydropeptidase
T1 sequence (whole entry): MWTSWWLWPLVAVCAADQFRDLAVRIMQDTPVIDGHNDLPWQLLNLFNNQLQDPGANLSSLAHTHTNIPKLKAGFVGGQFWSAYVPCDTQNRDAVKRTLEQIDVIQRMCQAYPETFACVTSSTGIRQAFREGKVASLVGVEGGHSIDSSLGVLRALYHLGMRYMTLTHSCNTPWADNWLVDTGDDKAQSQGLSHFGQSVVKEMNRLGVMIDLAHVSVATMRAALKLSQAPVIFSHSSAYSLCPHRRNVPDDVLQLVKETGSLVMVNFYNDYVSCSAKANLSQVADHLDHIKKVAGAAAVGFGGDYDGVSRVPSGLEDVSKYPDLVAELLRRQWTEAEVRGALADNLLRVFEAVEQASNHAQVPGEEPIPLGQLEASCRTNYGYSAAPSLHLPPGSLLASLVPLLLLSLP

Enterococcus faecalis [5] = test: In vitro antibacterial activity against E. faecalis(GC 842) without pre-incubation in mouse serum
Enterococcus faecalis [6] = test: In vitro antibacterial activity against E. faecalis(GC 842) following pre-incubation in mouse serum
Enterobacter cloacae [7] = test: In vitro antibacterial activity against E. cloacae(GC 2209) following preincubation in mouse serum
Enterobacter cloacae [8] = test: In vitro antibacterial activity against E. cloacae(GC 2209) without pre-incubation in mouse serum
Enterococcus faecium [9] = test: In vitro for antibacterial activity against E. faecium(GC 1182) without pre-incubation in mouse serum
Escherichia coli [10] = test: In vitro antibacterial activity expressed as MIC against Escherichia coli (ATCC 25922) following pre-incubation in mouse serum
Escherichia coli [11] = test: In vitro antibacterial activity expressed as MIC against Escherichia coli (ATCC 25922) without pre-incubation in mouse serum
Escherichia coli [12] = test: In vitro antibacterial activity expressed as MIC against E. coli(GC 1792) following pre-incubation in mouse serum
Escherichia coli [13] = test: In vitro antibacterial activity expressed as MIC against E. coli(GC 1792) without pre-incubation in mouse serum
Escherichia coli [14] = test: In vitro antibacterial activity expressed as MIC against E. coli(GC 2205) following pre-incubation in mouse serum
Escherichia coli [15] = test: In vitro antibacterial activity expressed as MIC against E. coli(GC 2205) without pre-incubation in mouse serum
Mus musculus [16] = test: Antibacterial activity against Escherichia coli (311) infection in mice after single oral dose, activity expressed as ED50
Mus musculus [17] = test: Antibacterial activity against Escherichia coli (311) infection in mice after single subcutaneous dose, activity expressed as ED50; details: sc
Morganella morganii [18] = test: In vitro antibacterial activity against M. morganii(GC 2213) following pre-incubation in mouse serum
Morganella morganii [19] = test: In vitro antibacterial activity against M. morganii(GC 2213) without pre-incubation in mouse serum
Pseudomonas aeruginosa [20] = test: In vitro antibacterial activity against Pseudomonas aeruginosa (ATCC 27853) following pre-incubation in mouse serum
Pseudomonas aeruginosa [21] = test: In vitro antibacterial activity against Pseudomonas aeruginosa (ATCC 27853) without pre-incubation in mouse serum
Pseudomonas aeruginosa [22] = test: In vitro antibacterial activity against P. aeruginosa(GC 1544 oprd) without pre-incubation in mouse serum
Staphylococcus aureus [23] = test: In vitro antibacterial activity against S aureus(ATCC 29213) following preincubation in mouse serum
Staphylococcus aureus [24] = test: In vitro antibacterial activity against S. aureus(ATCC 29213) without pre-incubation in mouse serum
Staphylococcus aureus [25] = test: In vitro antibacterial activity against S. aureus(GC 2220 MRSA) without pre-incubation in mouse serum
[26] = test system: Stenotrophomonas maltophilia; test: In vitro antibacterial activity against X. maltophilia(GC 562) without pre-incubation in mouse serum
Staphylococcus aureus [27] = test: In vitro antibacterial activity against S. aureus(GC 2220 MRSA) following pre-incubation in mouse serum
Pseudomonas aeruginosa [28] = test: In vitro antibacterial activity against P. aeruginosa(GC 1544 oprd) following pre-incubation in mouse serum
[29] = test system: Stenotrophomonas maltophilia; test: In vitro antibacterial activity against X. maltophilia(GC 562) following pre-incubation in mouse serum
[30] = test system: Acinetobacter calcoaceticus; test: In vitro antibacterial activity against Acinetobacter calcoaceticus (GC 756) without preincubation in mouse serum
Enterococcus faecium [31] = test: In vitro for antibacterial activity against E. faecium(GC 1182) following pre-incubation in mouse serum

- MIC [1]: 8 µg/mL (≈ 13.3 µM)
- MIC (Citrobacter freundii [2]): 0.5 µg/mL (≈ 0.83 µM)
- MIC (Citrobacter freundii [3]): > 128 µg/mL
- Relative hydrolysis [4]: 20
- MIC (Enterococcus faecalis [5]): 64 µg/mL (≈ 106 µM)
- MIC (Enterococcus faecalis [6]): 4 µg/mL (≈ 6.64 µM)
- MIC (Enterobacter cloacae [7]): 0.25 µg/mL (≈ 0.415 µM)
- MIC (Enterobacter cloacae [8]): > 128 µg/mL
- MIC (Enterococcus faecium [9]): > 128 µg/mL
- MIC (Escherichia coli [10]): 0.06 µg/mL (≈ 0.0996 µM)
- MIC (Escherichia coli [11]): 128 µg/mL (≈ 212 µM)
- MIC (Escherichia coli [12]): 0.12 µg/mL (≈ 0.199 µM)
- MIC (Escherichia coli [13]): > 128 µg/mL
- MIC (Escherichia coli [14]): 0.12 µg/mL (≈ 0.199 µM)
- MIC (Escherichia coli [15]): 1 µg/mL (≈ 1.66 µM)
- MIC (Morganella morganii [18]): 4 µg/mL (≈ 6.64 µM)
- MIC (Morganella morganii [19]): > 128 µg/mL
- MIC (Pseudomonas aeruginosa [20]): 32 µg/mL (≈ 53.1 µM)
- MIC (Pseudomonas aeruginosa [21]): > 128 µg/mL
- MIC (Pseudomonas aeruginosa [22]): > 128 µg/mL
- MIC (Staphylococcus aureus [23]): 0.12 µg/mL (≈ 0.199 µM)
- MIC (Staphylococcus aureus [24]): 4 µg/mL (≈ 6.64 µM)
- MIC (Staphylococcus aureus [25]): 64 µg/mL (≈ 106 µM)
- MIC [26]: > 128 µg/mL
- MIC (Staphylococcus aureus [27]): 2 µg/mL (≈ 3.32 µM)
- MIC (Pseudomonas aeruginosa [28]): 64 µg/mL (≈ 106 µM)
- MIC [29]: > 128 µg/mL
- MIC [30]: > 128 µg/mL
- MIC (Enterococcus faecium [31]): > 128 µg/mL
SMILES: CCOC(=O)OCOC(=O)C1=C(S[C@@H]2CCO[C@@H]2CNC(=O)OCOC(=O)C(C)(C)C)[C@H](C)C2[C@@H]([C@@H](C)O)C(=O)N12 (stereo partly drawn)
- ED50 (Mus musculus [16]): 0.96 mg/kg
- ED50 (Mus musculus [17]): 0.73 mg/kg

SMILES: CC(OC(=O)OC1=CCCCC1)OC(=O)C1=C(S[C@@H]2CCO[C@@H]2CN)[C@H](C)C2[C@@H]([C@@H](C)O)C(=O)N12.Cl (stereo partly drawn)
- ED50 (Mus musculus [16]): > 3.2 mg/kg
- ED50 (Mus musculus [17]): 1.6 mg/kg

SMILES: CCOC(=O)OCOC(=O)C1=C(S[C@@H]2CCO[C@@H]2CNC(=O)OC(C)OC(=O)C(C)C)[C@H](C)C2[C@@H]([C@@H](C)O)C(=O)N12 (stereo partly drawn)
- ED50 (Mus musculus [16]): 0.72 mg/kg
- ED50 (Mus musculus [17]): 0.45 mg/kg

SMILES: CC(C)C(=O)OCOC(=O)C1=C(SC2CCOC2CN)[C@H](C)C2[C@@H]([C@@H](C)O)C(=O)N12.CCN(C(C)C)C(C)C (stereo partly drawn)
- ED50 (Mus musculus [16]): 2.3 mg/kg
- ED50 (Mus musculus [17]): 0.18 mg/kg

- MIC [1]: 4 µg/mL
- MIC (Citrobacter freundii [2]): 0.25 µg/mL
- MIC (Citrobacter freundii [3]): 4 µg/mL
- MIC (Enterococcus faecalis [5]): 4 µg/mL
- MIC (Enterococcus faecalis [6]): 1 µg/mL
- MIC (Enterobacter cloacae [7]): < 0.06 µg/mL
- MIC (Enterobacter cloacae [8]): 2 µg/mL
- MIC (Enterococcus faecium [9]): > 128 µg/mL
- MIC (Escherichia coli [10]): < 0.06 µg/mL
- MIC (Escherichia coli [11]): 0.12 µg/mL
- MIC (Escherichia coli [12]): < 0.06 µg/mL
- MIC (Escherichia coli [13]): 0.25 µg/mL
- MIC (Escherichia coli [14]): < 0.06 µg/mL
- MIC (Escherichia coli [15]): 0.12 µg/mL
- MIC (Morganella morganii [18]): 1 µg/mL
- MIC (Morganella morganii [19]): 2 µg/mL
- MIC (Pseudomonas aeruginosa [20]): 16 µg/mL
- MIC (Pseudomonas aeruginosa [21]): 64 µg/mL
- MIC (Pseudomonas aeruginosa [22]): > 128 µg/mL
- MIC (Staphylococcus aureus [23]): < 0.06 µg/mL
- MIC (Staphylococcus aureus [24]): 0.5 µg/mL
- MIC (Staphylococcus aureus [25]): 32 µg/mL
- MIC [26]: > 128 µg/mL
- MIC (Staphylococcus aureus [27]): 8 µg/mL
- MIC (Pseudomonas aeruginosa [28]): 32 µg/mL
- MIC [29]: > 128 µg/mL
- MIC [30]: 32 µg/mL
- MIC (Enterococcus faecium [31]): 64 µg/mL
SMILES: CC(=O)OC(C)OC(=O)NC[C@H]1OCC[C@H]1SC1=C(C(=O)[O-])N2C(=O)[C@H]([C@@H](C)O)C2[C@H]1C.[Na+] (stereo partly drawn)
- ED50 (Mus musculus [16]): 4.9 mg/kg
- ED50 (Mus musculus [17]): 0.65 mg/kg

- Relative hydrolysis [4]: 6
SMILES: CC(=O)OC(C)OC(=O)NC[C@H]1OCC[C@H]1SC1=C(C(=O)O)N2C(=O)[C@H]([C@@H](C)O)C2[C@H]1C (stereo partly drawn)

SMILES: CCN(C(C)C)C(C)C.C[C@H]1C(S[C@@H]2CCO[C@@H]2CNC(=O)OCOC(=O)C(C)(C)C)=C(C(=O)O)N2C(=O)[C@H]([C@@H](C)O)C12 (stereo partly drawn)
- ED50 (Mus musculus [16]): 2.9 mg/kg
- ED50 (Mus musculus [17]): 0.65 mg/kg

SMILES: CCOC(=O)OCOC(=O)C1=C(S[C@@H]2CCO[C@@H]2CNC(=O)OCOC(=O)c2ccccc2)[C@H](C)C2[C@@H]([C@@H](C)O)C(=O)N12 (stereo partly drawn)
- ED50 (Mus musculus [16]): 0.76 mg/kg
- ED50 (Mus musculus [17]): 0.54 mg/kg

SMILES: CC(=O)OC(C)OC(=O)NC[C@H]1OCC[C@H]1SC1=C(C(=O)O)N2C(=O)[C@H]([C@@H](C)O)C2[C@H]1C.CCN(C(C)C)C(C)C (stereo partly drawn)
- ED50 (Mus musculus [16]): 4.5 mg/kg
- ED50 (Mus musculus [17]): 0.62 mg/kg

SMILES: C[C@H]1C(SC2COC(CN)C2)=C(C(=O)O)N2C(=O)[C@H]([C@@H](C)O)C12 (stereo partly drawn)
- ED50 (Mus musculus [16]): 3.5 mg/kg
- ED50 (Mus musculus [17]): 0.28 mg/kg

SMILES: CC(C)OC(=O)OC(C)OC(=O)C1=C(S[C@@H]2CCO[C@@H]2CNC(=O)OCOC(=O)C(C)C)[C@H](C)C2[C@@H]([C@@H](C)O)C(=O)N12 (stereo partly drawn)
- ED50 (Mus musculus [16]): 1.4 mg/kg
- ED50 (Mus musculus [17]): 2.1 mg/kg
